Where two headings read alike, the source gives them in different places.

From US20230165965A1, “NEW COUMARIN-POLYMER CONJUGATES AND USES THEREOF” (Onyel Biotech S.r.l., priority 2020, published 2023) come the findings set out here.

The nature of data set [1]: Atomic force measurement (AFM) of hydrogel Young's modulus. To be noted: 1-photon UV mediated cycloaddition. Format: physicochemical. The procedure:
With the aim to provide glass surface HCCA-groups for covalent bonding HCC-branched polymers solutions were drop-cast onto glass coverslip previously functionalized with HCCA- as described in Section 10. HCC-4arm PEG and HCC-8arm PEG were dissolved in PBS (300 mg/mL) at room temperature under agitation. HCC-Gel was dissolved in PBS (100 mg/mL) under agitation at 60° C. for 10 min. When coverslips were used, a second coverslip was placed on top of the drop of HCC-polymeric solutions to limit water evaporation during the irradiation process. […] Laser power is measured before objective back aperture, corresponding to about 1% of the power on the sample plane. […]
For crosslinking reaction analysis, 5 μL CMMC-4 arm PEG (300 mg/mL) or CMMC-Gel (100 mg/mL) solution was located in a humid chamber at 3 cm from a 365 nm UV LED Gen 2 Emitter LZ4-04UV00 (Led Engin) and irradiated for different minutes as reported. When CMMC-Gel solution was analysed at different concentrations (100 mg/mL, 120 mg/mL, 140 mg/mL, 160 mg/mL, 180 mg/mL and 200 mg/mL), 5 μL of solution was located in a humid chamber at 3 cm from a 365 nm UV LED Gen 2 Emitter LZ4-04UV00 (Led Engin) and irradiated for 3 minutes. […]
The Young's modulus was calculated applying a fit of the Hertz model to the force curve, assuming a Poisson ratio of 0.5. […]

Another data set concerns mCherry+FBs. To be noted: for organization of donor mCherry+FBs: under epimysium, 21 days. The procedure: (§1) Mice were anaesthetized using i.p. injection of Zoletil® 50/50 (40 mg/kg) and Rompun® 2% Xilazina (5 mg/kg) in physiologic solution. Induction of deep surgical anaesthesia was confirmed by absence of reaction to hind foot pinch. The surgical procedure underwent in aseptic conditions (skin preparation, sterilized instruments, gloves and drapes). […] For blood flow analysis, Rhodamine B isothiocyanate-Dextran (Sigma, R9379) was injected in tail vein at 50 mg/mL in physiologic solution. When required, skin wound was closed with Vicryl 6-0 suture and no movement or space restriction were applied to animals after treatments. At the required time point, animals were deeply anesthetized, subjected to stereomicroscope and/or 2P intravital imaging, then sacrificed for tissues collection.

The next data set deals with Fibroblasts (FBs). To be noted: ΔZ up to 150 μm, interspace down to 10 μm.
Data set [2] relates to Murine muscle-derived stem cells (MuSC). The procedure:
Cells were expanded for 1 passage at 37° C. in cell incubator, using proliferating medium composed by DMEM supplemented with 20% horse serum, 10% fetal bovine serum (Gibco), 1% chicken embryo extract (Sera Laboratories International), bFGF ([…], Invitrogen #PHG0264) and 1% Pen/Strep (Thermofisher). […] Samples were cultured in proliferating media and analyzed 2 days after 3D bioprinting (cell directionality was quantified as reported above). […] After 5 days of culture in proliferating medium, differentiation medium (DMEM supplemented with 2% horse serum and 1% Pen/Strep) was used for the following 5 days of cell culture. After 10 days, samples were fixed in 4% (w/v) paraformaldehyde (PFA, Sigma-Aldrich) in PBS for 7 min at room temperature and maintained at 4° C. in PBS until use.
(§2) ImageJ software were used for adjustments of levels and contrast, maximum and standard deviation intensity projections, 3D reconstructions and thresholding to create binary mask used for directionality and ferret angle measurements. To quantify the directionality of i3D bioprinted cells, at least 9 fluorescence images of independent biological triplicates for each sample were converted in binary masks, then analyzed with directionality plugin of ImageJ software (that indicates the amount of structures in a given direction). To quantify the shape of enclosed hSIOs, at least 9 fluorescence images of independent biological triplicates for each sample were converted in binary masks, then analyzed with measure plugin of ImageJ software to quantify the Feret's angle (the angle between the longest distance of the axis of any two points along the selection boundary (Feret's diameter) and a line parallel to the x-axis of the image).

The test system of the next data set is skeletal muscle. Conditions: GFP+MuSC/mCherry+FB-laden, i3D bioprinted. How it is done:
as §1
ImageJ software were used for adjustments of levels and contrast, maximum and standard deviation intensity projections, 3D reconstructions and thresholding to create binary mask used for directionality and ferret angle measurements. To quantify the directionality of i3D bioprinted cells, at least 9 fluorescence images of independent biological triplicates for each sample were converted in binary masks, then analyzed with directionality plugin of ImageJ software (that indicates the amount of structures in a given direction). […]

Data set [3] concerns human small intestinal organoids (hSIOs). In kind it is cell-based. Conditions: open square-box hydrogel, up to 8 days of culture.
Source text: as §2

The subject of a further data set is HUVEC cells. Conditions: seeded on hydrogels.
The nature of data set [4]: Single-photon absorption spectra analysis of coumarin derivatives. Format: physicochemical. How it is done: Table 1, below, reports the absorbance spectra analysis of selected coumarin derivatives dissolved in PBS at pH 7.4, the maximum single photon absorption wavelengths in specific solvents are indicated.
Selected coumarin derivatives were dissolved in DMSO at a concentration of 5 mg/ml and diluted 1:500 in PBS, pH 7.4. The absorption spectra were recorded on an Evolution 201 UV-Vis spectrophotometer (Thermo Fisher Scientific, Waltham, Mass., USA) in the wavelength range of 250-450 nm.

Procedure for Fibroblasts (FBs): For 3D cell laden culture, 10^4 cells were seeded into Matrigel, or Matrigel or CMMC-Gel exposed to UV light for 3 minutes at an irradiation distance of 3 millimeters, located in a 24 multiwell culture dish, cultured for 2 days at 37° C. and 5% CO2 in cell incubator before performing cell viability assay as described above. […] 2P-cell laden constructs were analyzed by imaging or AFM as described above.
Procedure for HUVEC cells: HUVEC were transduced with a lentiviral vector encoding for eGFP (3) and cultured in Endothelial Growth Media (EGM, Lonza). […] After culture, cells were fixed in 4% (w/v) paraformaldehyde (PFA, Sigma-Aldrich) in PBS for 7 min at room temperature and maintained at 4° C. in PBS until use. […] After culture, cells were fixed in 4% (w/v) paraformaldehyde (PFA, Sigma-Aldrich) in PBS for 7 min at room temperature and maintained at 4° C. in PBS until use.

For “7-(carboxymethoxy)-4-methylcoumarin-gelatin [CMMC-Gel]”, in data set [1], the “elastic modulus with increasing irradiation time” value is given as “increases to asymptotic values”.

In the case of “7-hydroxycoumarin-3-carboxamide-gelatin [HCC-Gel]”, in the data set on mCherry+FBs (intra-dermal injection and i3D bioprinting across epidermis, 14 days), the “localization of donor mCherry+FBs” value is “Elongated localization”. Further, the “organization of donor mCherry+FBs” value is “elongated clusters” in the data set on mCherry+FBs (i3D bioprinted parallelepiped-shaped constructs) and “rounded clusters” in the data set on mCherry+FBs (injected only (no i3D bioprinting)). For the same compound, in the data set on Fibroblasts (FBs), the “adhesion of GFP FBs to parallelepiped-shaped hydrogels” value was “efficiently adhere”. Further, the “cell directionality of MuSC” value is listed as “randomly oriented” in data set [2] (cuboid-shaped structures) and “oriented along major axis of the 3D structures” in data set [2] (elongated-shaped structures). The myotube formation result in data set [2] (parallelepiped-shaped structures, 10 days of culture) is “support the formation of aligned multinucleated myotubes”. Besides, the “de novo skeletal muscle tissue formation” value in the data set on skeletal muscle (7 days) is recorded as “supports de novo skeletal muscle tissue formation”. Further, in the data set on skeletal muscle (one week), the “organization of donor GFP cells” value is “confined bundle of elongated GFP cells”. In addition, the “columnar epithelium of enclosed hSIOs” value in data set [3] is recorded as “well-developed columnar epithelium”. Besides, in the data set on HUVEC cells, the “adhesion and culture of HUVEC cells” value is “supported adhesion and culture”.

In the case of `Cc1c(CC(=O)O)c(=O)oc2cc(N)ccc12` [7-Amino-4-methyl-3-coumarinylacetic acid], the “Abs λ” value in data set [4] (Solvent: Methanol) turned out to be 340 nm.

In the case of `Cc1cc(=O)oc2cc(OCC(=O)O)ccc12` [7-Carboxymethoxy-4-methylcoumarin], the “Abs λ” value in data set [4] (Solvent: Ethanol) turned out to be 321 nm.

Take `O=c1cc(C(F)(F)F)c2ccc(O)cc2o1` [7-Hydroxy-4-(trifluoromethyl)coumarin]: in data set [4] (Solvent: Ethanol), the “Abs λ” value was 383 nm.

`Cc1cc(=O)oc2cc(O)ccc12` [7-Hydroxy-4-methylcoumarin]: the “Abs λ” value in data set [4] (Solvent: 95% Ethanol) turned out to be 322 nm.

On to `O=C(ON1C(=O)CCC1=O)c1cc2ccc(O)cc2oc1=O` [7-Hydroxycoumarin-3-carboxylic acid N-succinimidyl ester], for which the “Abs λ” value in data set [4] (solvent not given) came out at 413 nm.

As for `O=c1ccc2ccc(O)cc2o1` [7-Hydroxycoumarin], in data set [4] (Solvent: 95% Ethanol), the “Abs λ” value turned out to be 325 nm.

Regarding `CCOC(=O)c1cc2ccc(O)cc2oc1=O` [Ethyl 7-Hydroxycoumarin-3-carboxylate], in data set [4] (Solvent: Ethanol), the “Abs λ” value is on record as 403 nm.
